Data as given in publication PMC9244950 (ACS Omega, 2022).
Converted amounts (≈) assume the structure as drawn.

Assays:
Mtb H37Rv strain = assay: microbe, parasite or virus in culture; format: cell-based, Mycobacterium tuberculosis
[1] = In vitro cytotoxicity, THP-1 cell viability after 3 days; format: cell-based; settings: human, THP-1 cells
wild-type InhA = wild-type InhA (Mycobacterium tuberculosis, UniProt P9WGR1); assay: InhA inhibition assay; format: biochemical
[2] = Mycobacterium tuberculosis, H37RV
[3] = Mycobacterium tuberculosis, H37RV, Mtb H37Rv, dual read-out (OD590 and fluorescence)
[4] = Mtb H37Rv, dual read-out (OD590 and fluorescence)

Chain of wild-type InhA (P9WGR1 whole entry, looked up): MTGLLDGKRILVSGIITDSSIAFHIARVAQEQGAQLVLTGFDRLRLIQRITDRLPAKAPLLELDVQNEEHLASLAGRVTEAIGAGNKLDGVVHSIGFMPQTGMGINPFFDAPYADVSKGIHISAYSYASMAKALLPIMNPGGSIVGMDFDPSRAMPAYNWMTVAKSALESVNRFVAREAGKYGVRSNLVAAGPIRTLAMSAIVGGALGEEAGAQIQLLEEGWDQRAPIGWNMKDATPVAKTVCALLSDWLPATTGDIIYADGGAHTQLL

Compound | MIC (Mtb H37Rv strain; [2]) | IC50 (Mtb H37Rv strain; [3]) | IC50 (Mtb H37Rv strain; [4]) | IC50 at 3 days [1] | IC50 (wild-type InhA) | MIC (Mtb H37Rv strain; [4])
COc1ccccc1-c1nnc(N2C(=O)c3ccccc3C2=O)s1 [Compound 22, 2-(5-(2-Methoxyphenyl)-1,3,4-thiadiazol-2-yl)isoindoline-1,3-dione] | 180 µM (≈ 60.7 µg/mL) | 58 µM |  |  |  | 
O=C1c2ccccc2C(=O)N1c1nnc(-c2cccc(Br)c2)s1 [Compound 21, 2-(5-(3-Bromophenyl)-1,3,4-thiadiazol-2-yl)isoindoline-1,3-dione] | > 200 µM | 100 µM |  |  |  | 
O=C1c2ccccc2C(=O)N1c1ccc(Br)cn1 [Compound 14, 2-(5-Bromopyridin-2-yl)isoindoline-1,3-dione] | > 200 µM | 90 µM |  |  |  | 
Cc1ccc(N2C(=O)c3ccccc3C2=O)nc1 [Compound 13, 2-(5-Methylpyridin-2-yl)isoindoline-1,3-dione] | > 200 µM | 160 µM | 148 µM |  |  | 
COc1ccc(-c2nnc(N3C(=O)c4ccccc4C3=O)s2)cc1 [Compound 16, 2-(5-(4-Methoxyphenyl)-1,3,4-thiadiazol-2-yl)isoindoline-1,3-dione] | 182 µM (≈ 61.4 µg/mL) | 62 µM |  |  |  | 
O=C1c2ccccc2C(=O)N1c1ccc(F)cc1 [Compound 2, 2-(4-Fluorophenyl)isoindoline-1,3-dione] | > 200 µM | 197 µM |  |  |  | 
Cc1ccccc1N1C(=O)c2ccccc2C1=O [Compound 3, 2-(o-Tolyl)isoindoline-1,3-dione] | 194 µM (≈ 46 µg/mL) | 68 µM |  |  |  | 
O=C1c2ccccc2C(=O)N1c1nnc(-c2ccc(I)cc2)s1 [Compound 27, 2-(5-(4-Iodophenyl)-1,3,4-thiadiazol-2-yl)isoindoline-1,3-dione] | 64 µM (≈ 27.7 µg/mL) | 18 µM |  | > 200 µM | 8.65 µM | 
O=C(NN1C(=O)c2ccccc2C1=O)c1ccc(O)cc1 [Compound 20, N-(1,3-Dioxoisoindoline-2-yl)-4-hydroxybenzamide] | > 200 µM | 101 µM |  |  |  | 
O=C1c2ccccc2C(=O)N1c1ccc(Br)cc1 [Compound 8, 2-(4-Bromophenyl)isoindoline-1,3-dione] | 102 µM (≈ 30.8 µg/mL) | 31 µM |  | > 150 µM |  | 
O=C1c2ccccc2C(=O)N1c1nnc(-c2ccccc2F)s1 [Compound 25, 2-(5-(2-Fluorophenyl)-1,3,4-thiadiazol-2-yl)isoindoline-1,3-dione] | > 200 µM | 133 µM |  |  |  | 
O=C1c2ccccc2C(=O)N1c1cccc([N+](=O)[O-])c1 [Compound 10, 2-(3-Nitrophenyl)isoindoline-1,3-dione] | > 200 µM | 121 µM |  |  |  | 
O=C1c2ccccc2C(=O)N1c1nnc(-c2ccccc2)s1 [Compound 19, 2-((5-Phenyl)-1,3,4-thiadiazol-2-yl)isoindoline-1,3-dione] | > 200 µM | > 200 µM |  |  |  | 
O=C1c2ccccc2C(=O)N1c1nnc(Cc2ccccc2)s1 [Compound 24, 2-(5-Benzyl--1,3,4-thiadiazol-2-yl)isoindoline-1,3-dione] | > 200 µM | > 200 µM |  |  |  | 
O=C1c2ccccc2C(=O)N1c1cccc(Cl)c1 [Compound 7, 2-(3-Chlorophenyl)isoindoline-1,3-dione] | 96 µM (≈ 24.7 µg/mL) | 26 µM |  | > 150 µM |  | 
O=C(O)CN1C(=O)c2ccccc2C1=O [Compound 11, 2-(1,3-Dioxoisoindolin-2-yl)acetic Acid] | 164 µM (≈ 33.6 µg/mL) | 55 µM |  |  |  | 
NNC(=O)c1ccncc1 [Isoniazid, reference compound] | 0.38 µM (≈ 0.0521 µg/mL) | 0.15 µM |  |  |  | 
O=C1c2ccccc2C(=O)N1c1ccc(F)c(Cl)c1 [Compound 4, 2-(3-Chloro-4-fluorophenyl)isoindoline-1,3-dione] | 186 µM (≈ 51.3 µg/mL) | 64 µM |  |  |  | 
Cc1ccnc(N2C(=O)c3ccccc3C2=O)c1 [Compound 12, 2-(4-Methylpyridin-2-yl)isoindoline-1,3-dione] | > 200 µM | 148 µM | 160 µM |  |  | 
Cc1cccc(N2C(=O)c3ccccc3C2=O)c1 [Compound 5, 2-(m-Tolyl)isoindoline-1,3-dione] | 100 µM (≈ 23.7 µg/mL) | 29 µM |  | > 150 µM |  | 
O=C1c2ccccc2C(=O)N1c1nnc(-c2ccccc2[N+](=O)[O-])s1 [Compound 28, 2-(5-(2-Nitrophenyl)-1,3,4-thiadiazol-2-yl)isoindoline-1,3-dione] | > 200 µM | 171 µM |  |  |  | 
O=C1c2ccccc2C(=O)N1c1nnc(-c2cccc(Cl)c2)s1 [Compound 26, 2-(5-(3-Chlorophenyl)-1,3,4-thiadiazol-2-yl)isoindoline-1,3-dione] | 192 µM (≈ 65.6 µg/mL) | 80 µM |  |  |  | 
2-(4-Methyl-2-oxo-2H-chromen-6-yl)isoindoline-1,3-dione [Compound 30] |  |  | > 200 µM |  |  | > 200 µM
Cc1nnc(N2C(=O)c3ccccc3C2=O)s1 [Compound 29, 2-(5-Methyl-1,3,4-thiadiazol-2-yl)isoindolin-1,3-dione] | > 200 µM | 100 µM |  |  |  | 
O=C1c2ccccc2C(=O)N1c1ccc(Cl)cc1 [Compound 6, 2-(4-Chlorophenyl)isoindoline-1,3-dione] | 94 µM (≈ 24.2 µg/mL) | 28 µM |  | > 150 µM |  | 
Cc1cccc(-c2nnc(N3C(=O)c4ccccc4C3=O)s2)c1 [Compound 23, 2-(5-(m-Tolyl)-1,3,4-thiadiazol-2-yl)isoindoline-1,3-dione] | 123 µM (≈ 39.5 µg/mL) | 43 µM |  |  |  | 
